25 compounds from patent US9493444B2 (Merck Patent GmbH, priority 2012, dated 2016) can be followed below.

The structures appear in SMILES notation. A value given as a limit tells only on which side of the number the result lay.

For this experiment, the system named is Wnt pathway (TCF-dependent transcription in HEK293 luciferase reporter cell line with ER-DSH construct). The experiment in a line: Cellular assay for Wnt pathway activity (luciferase reporter). Format: cell-based. The conditions noted are these: Homo sapiens; Wnt pathway inhibition, HEK293 luciferase reporter cells (ER-DSH, TCF promoter), 24 hours incubation, estrogen-induced. The procedure, abridged:
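Luminescent luciferase read-out after 24 h compound exposure at 1 nM to 30 μM, with TCF-driven transcription switched on by estrogen addition. IC50 values come from curve fits of data normalized against the vehicle-only control.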
On the technique in general: Reporter assays use an easily measured gene product as a stand-in for the process of interest.
As usually defined, the IC50 is the midpoint of a concentration-inhibition curve. A high value points to weaker potency. Compound `COc1ccc(-c2ccc(Oc3cncc(N(C)CCN(C)C(C)=O)n3)c(F)c2)nc1` [Compound 227, N-[2-({6-[2-Fluoro-4-(5-methoxy-pyridin-2-yl)-phenoxy]-pyrazin-2-yl}-methyl-amino)-ethyl]-N-methyl-acetamide] registered an IC50 of less than 200 nM.

On to `CC(=O)N(C)CCN(C)c1cncc(Oc2ccc(-c3ccncc3C#N)cc2F)n1` [Compound 228, N-[2-({6-[4-(3-Cyano-pyridin-4-yl)-2-fluoro-phenoxy]-pyrazin-2-yl}-methyl-amino)-ethyl]-N-methyl-acetamide], for which the IC50 was less than 200 nM.

Consider `CC(=O)N(C)CCN(C)c1cncc(Oc2ccc(-c3ccc(C)cn3)cc2F)n1` [Compound 229, N-[2-({6-[2-Fluoro-4-(5-methyl-pyridin-2-yl)-phenoxy]-pyrazin-2-yl}-methyl-amino)-ethyl]-N-methyl-acetamide], for which the IC50 was less than 200 nM.

The compound `CC(=O)Nc1ccc(-c2ccc(Oc3cncc(N(C)CCN(C)C(C)=O)n3)c(F)c2)nc1` [Compound 230, N-{6-[4-(6-{[2-(Acetyl-methyl-amino)-ethyl]-methyl-amino}-pyrazin-2-yloxy)-3-fluoro-phenyl]-pyridin-3-yl}-acetamide] gave an IC50 of less than 200 nM.

In turn, `CC(=O)N(C)CCN(C)c1cncc(Oc2ccc(C(=O)Nc3cccnc3)cc2)n1` [Compound 231, 4-(6-{[2-(Acetyl-methyl-amino)-ethyl]-methyl-amino}-pyrazin-2-yloxy)-N-pyridin-3-yl-benzamide] had an IC50 of less than 200 nM.

As for `CC(=O)N(C)CCN(C)c1cncc(Oc2ccc(CCC#N)cc2)n1` [Compound 232, N-[2-({6-[4-(2-Cyano-ethyl)-phenoxy]-pyrazin-2-yl}-methyl-amino)-ethyl]-N-methyl-acetamide], the IC50 is less than 200 nM.

The compound `CC(=O)N(C)CCNc1cncc(Oc2ccc(-c3ccc(N4CCOCC4)nc3)cc2)n1` [Compound 233, N-Methyl-N-(2-{6-[4-(6-morpholin-4-yl-pyridin-3-yl)-phenoxy]-pyrazin-2-ylamino}-ethyl)-acetamide] gave an IC50 of 1000 to 10000 nM.

On to `CC(=O)N(C)CCNc1cncc(Oc2ccc(-c3cccc(N4CCN(C)CC4)n3)cc2)n1` [Compound 234, N-Methyl-N-[2-(6-{4-[6-(4-methyl-piperazin-1-yl)-pyridin-2-yl]-phenoxy}-pyrazin-2-ylamino)-ethyl]-acetamide], for which the IC50 is less than 200 nM.

`CC(=O)Nc1cccc(-c2ccc(Oc3cncc(NCCN(C)C(C)=O)n3)cc2)n1` [Compound 235, N-(2-{6-[4-(6-Acetylamino-pyridin-2-yl)-phenoxy]-pyrazin-2-ylamino}-ethyl)-N-methyl-acetamide] returned an IC50 of 200 to 1000 nM.

In turn, `CC(=O)N(C)CCN(C)c1cncc(Oc2ccc(-c3c(F)c(F)nc(F)c3F)cc2)n1` [Compound 236, N-Methyl-N-[2-(methyl-{6-[4-(2,3,5,6-tetrafluoro-pyridin-4-yl)-phenoxy]-pyrazin-2-yl}-amino)-ethyl]-acetamide] showed an IC50 of less than 200 nM.

On to `CC(=O)N(C)CCN(C)c1cncc(Oc2ccc(-c3cncc4[nH]ccc34)cc2)n1` [Compound 237, N-Methyl-N-[2-(methyl-{6-[4-(1H-pyrrolo[2,3-c]pyridin-4-yl)-phenoxy]-pyrazin-2-yl}-amino)-ethyl]-acetamide], for which the IC50 was 200 to 1000 nM.

`CC(=O)N(C)CCN(C)c1cncc(Oc2ccc(-c3cnc(N)cn3)cc2F)n1` [Compound 238, N-[2-({6-[4-(5-Amino-pyrazin-2-yl)-2-fluoro-phenoxy]-pyrazin-2-yl}-methyl-amino)-ethyl]-N-methyl-acetamide]: the IC50 was less than 200 nM.

Regarding `CC(=O)N(C)CCN(C)c1cncc(Oc2ccc(-c3ccc(N4CCOCC4)nc3)cc2F)n1` [Compound 239, N-[2-({6-[2-Fluoro-4-(6-morpholin-4-yl-pyridin-3-yl)-phenoxy]-pyrazin-2-yl}-methyl-amino)-ethyl]-N-methyl-acetamide], the IC50 was less than 200 nM.

The compound `COc1ccc(-c2ccc(Oc3cncc(NCCN(C)C(C)=O)n3)cc2)nc1` [Compound 240, N-(2-{6-[4-(5-Methoxy-pyridin-2-yl)-phenoxy]-pyrazin-2-ylamino}-ethyl)-N-methyl-acetamide] yielded an IC50 of 200 to 1000 nM.

As to `CC(=O)N(C)CCNc1cncc(Oc2ccc(-c3cnc(N)cn3)cc2)n1` [Compound 241, N-(2-{6-[4-(5-Amino-pyrazin-2-yl)-phenoxy]-pyrazin-2-ylamino}-ethyl)-N-methyl-acetamide], the IC50 lay in the range of 1000 to 10000 nM.

The compound `CC(=O)N(C)CCNc1cncc(Oc2ccc(-c3ccncc3C#N)cc2)n1` [Compound 242, N-(2-{6-[4-(3-Cyano-pyridin-4-yl)-phenoxy]-pyrazin-2-ylamino}-ethyl)-N-methyl-acetamide] had an IC50 of 1000 to 10000 nM.

In turn, `COc1cc(C(C)=O)ccc1Oc1cncc(N(C)CCN(C)C(C)=O)n1` [Compound 243, N-(2-{[6-(4-Acetyl-2-methoxy-phenoxy)-pyrazin-2-yl]-methyl-amino}-ethyl)-N-methyl-acetamide] came in with an IC50 of 1000 to 10000 nM.

Compound `C#CCOC(=O)Nc1ccc(-c2ccc(Oc3cncc(N(C)CCN(C)C(C)=O)n3)cc2)nc1` [Compound 244, {6-[4-(6-{[2-(Acetyl-methyl-amino)-ethyl]-methyl-amino}-pyrazin-2-yloxy)-phenyl]-pyridin-3-yl}-carbamic acid prop-2-ynyl ester] had an IC50 of less than 200 nM.

For `CC(=O)N(C)CCN(C)c1cncc(Oc2ccc(-c3ccc(N4CCNCC4)nc3)cc2)n1` [Compound 245, N-Methyl-N-[2-(methyl-{6-[4-(6-piperazin-1-yl-pyridin-3-yl)-phenoxy]-pyrazin-2-yl}-amino)-ethyl]-acetamide], the IC50 is less than 200 nM.

In the case of `CC(=O)N(C)CCN(C)c1cncc(Oc2ccc(C)nc2)n1` [Compound 246, N-Methyl-N-(2-{methyl-[6-(6-methyl-pyridin-3-yloxy)-pyrazin-2-yl]-amino}-ethyl)-acetamide], the IC50 was in the range of 1000 to 10000 nM.

For the compound `CNC(=O)CCN(C)c1cncc(Oc2ccc(-c3ccc(C)cn3)cc2)n1` [Compound 247, N-Methyl-3-(methyl-{6-[4-(5-methyl-pyridin-2-yl)-phenoxy]-pyrazin-2-yl}-amino)-propionamide], the IC50 was less than 200 nM.

`CC(=O)N(C)CCN(C)c1cncc(Oc2ccc(Br)c(F)c2F)n1` [Compound 248, N-(2-{[6-(4-Bromo-2,3-difluoro-phenoxy)-pyrazin-2-yl]-methyl-amino}-ethyl)-N-methyl-acetamide] yielded a half-maximal inhibitory concentration (IC50) of 200 to 1000 nM.

The compound `CC(=O)N(C)CCN(C)c1cncc(Oc2ccc(-c3ccc(Cl)cc3)c(F)c2F)n1` [Compound 249, N-(2-{[6-(4′-Chloro-2,3-difluoro-biphenyl-4-yloxy)-pyrazin-2-yl]-methyl-amino}-ethyl)-N-methyl-acetamide] registered an IC50 of 200 to 1000 nM.

The compound `CC(=O)N(C)CCN(C)c1cncc(Oc2cnc3[nH]ccc3c2)n1` [Compound 250, N-Methyl-N-(2-{methyl-[6-(1H-pyrrolo[2,3-b]pyridin-5-yloxy)-pyrazin-2-yl]-amino}-ethyl)-acetamide] showed an IC50 of 1000 to 10000 nM.

The compound `CC(=O)N(C)CCN(C)c1cncc(Oc2ccc(-c3ccc(CCN)cc3)cc2)n1` [Compound 251, N-[2-({6-[4′-(2-Amino-ethyl)-biphenyl-4-yloxy]-pyrazin-2-yl}-methyl-amino)-ethyl]-N-methyl-acetamide] had an IC50 of less than 200 nM.
